Laboratory results taken from US10611727B2, “1-[1-(benzoyl)-pyrrolidine-2-carbonyl]-pyrrolidine-2-carbonitrile derivatives” (UNIVERSITAT DE BARCELONA, priority 2012, dated 2020).

Columns and labels:
[1] = Parallel artificial membrane permeability assay (PAMPA), porcine polar brain lipid extract; type: in vitro ADME; settings: 200 μM, pH 7.4, 4 hours
Protocol: Parallel artificial membrane permeability assay (PAMPA) described in Kansy M et al., J. Med. Chem. 1998; […]:1007-10 was used to determine the capacity of compounds to cross the Blood-Brain Barrier (BBB) by passive diffusion (Di L et al., Eur. J. Med. Chem. 2003; 38(3):223-32). The effective permeability (Pe) of the compounds was measured at an initial concentration of 200 μM. The buffer solution was prepared from a commercial concentrated one following the manufacturer's instructions. pH was adjusted to 7.4 using a 0.5 M NaOH solution. A stock solution of new compound was prepared in DMSO and diluted with buffer solution to a final 200 μM concentration (0.5% DMSO content). The PAMPA sandwich was separated and each donor well was filled with 200 μL of the compound solution. […] After 4 hours, the contents of the acceptor and donor compartments were analyzed by HPLC: 150 μL of each well from the donor plate and 150 μL of each well from the acceptor plate were transferred to HPLC vials, injecting each sample into a reverse-phase C18 column (150 mm×4.6 mm×5 μm, 100 Å) (100 μL/injection from the acceptor wells, 10 μL/injection from the donor wells and for t0 references). […]
The effective permeability (Pe) after 4 hours was calculated using equation 2 and the percentage of transport was calculated using equation 3: […]

[2] = system: MK-801-induced memory impairment; experiment: Passive avoidance task, MK-801 cognition impairment model; type: in vivo, rodents (mice or rats); settings: s.c. 35 min before shock session; MK-801 i.p. 15 min later; FIG. 2
Protocol: The new compounds were evaluated for their efficacy as cognition enhancers in a pharmacological model for cognitive impairment. The effects of the new compounds were evaluated in untreated and MK-801-treated rodents (mice or rats). MK-801 is a non-competitive antagonist of the N-Methyl-D-aspartate (NMDA) receptor which impairs animal performance in various learning and memory paradigms (Castellano C et al., Curr. Drug Targets 2001; 2:273-83; Riedel G et al., Behav. Brain Res. 2003; 140:1-47). MK-801 also produces various effects on rodent behavior, including deficits in sensory processing, hypermotility, stereotypy and ataxia. […]
For the evaluation of the passive avoidance task, a two-compartment box with a light compartment and a dark compartment of the same dimensions was used. […] In the evaluation session, the time which the animal takes to enter the dark compartment (in seconds) was measured, as a sign of memory retention of the shock received in the dark compartment during the previous session. […] The corresponding evaluated compound was injected s.c. 35 min before the shock session, followed 15 minutes later by i.p. injection of MK-801, or PBS in the case of the control, in the same doses and volume as described for the object recognition test.

[3] = target: human prolyl oligopeptidase (Homo sapiens (Human), UniProt P48147); experiment: POP inhibition assay (Z-G-P-AMC substrate, fluorimetric); type: biochemical; settings: 100 mM Na/K phosphate buffer pH 8.0, hPOP 20 to 60 nM
Protocol: hPOP expression: E. coli BL21 competent cells were transformed with pETM10 hPOP. To induce expression, a pre-culture of LB medium (50 mL) containing kanamycin (50 μg/mL) was inoculated with one colony and was grown overnight at 37° C., Next day, two cultures of LB medium (500 ml) were inoculated with the overnight culture (10 mL). The inoculated cultures were grown at 37° C. and 220 rpm until the OD595 was 1.2 (2.5-3 hours). […] The column was washed with suspension buffer until the absorbance at 280 nm returned to basal level. […] POP activity was checked in all fractions and positive ones were analyzed by SDS-PAGE and stained with Biosafe Comassie Stain G-250. […] Recombinant hPOP was quantified with the Bio-Rad Protein Assay with BSA as standard, Aliquots of the recombinant enzyme were prepared and immediately frozen with liquid nitrogen and stored at −80° C.
POP activity was determined following the method described by Toide et al (Toide K et al., J. Pharmacol. Exp. Ther. 1995; 274:1370-8), using Z-G-P-AMC (N-benzyloxycarbonyl-Gly-Pro-methylcoumarinyl-7-amide) as POP substrate. […]
After preincubation, Z-G-P-AMC (10 μl, 3 mM in 40% 1,4-dioxane) was added (3 μL 1.5 mM in 40% of 1,4-dioxane, in Conditions B), and the reaction was incubated for 1 hour at 37° C. The reaction was stopped by adding sodium acetate (150 μl, 1 M, pH 4) and the formation of AMC was measured fluorimetrically. […]

Sequence of human prolyl oligopeptidase (P48147 whole entry): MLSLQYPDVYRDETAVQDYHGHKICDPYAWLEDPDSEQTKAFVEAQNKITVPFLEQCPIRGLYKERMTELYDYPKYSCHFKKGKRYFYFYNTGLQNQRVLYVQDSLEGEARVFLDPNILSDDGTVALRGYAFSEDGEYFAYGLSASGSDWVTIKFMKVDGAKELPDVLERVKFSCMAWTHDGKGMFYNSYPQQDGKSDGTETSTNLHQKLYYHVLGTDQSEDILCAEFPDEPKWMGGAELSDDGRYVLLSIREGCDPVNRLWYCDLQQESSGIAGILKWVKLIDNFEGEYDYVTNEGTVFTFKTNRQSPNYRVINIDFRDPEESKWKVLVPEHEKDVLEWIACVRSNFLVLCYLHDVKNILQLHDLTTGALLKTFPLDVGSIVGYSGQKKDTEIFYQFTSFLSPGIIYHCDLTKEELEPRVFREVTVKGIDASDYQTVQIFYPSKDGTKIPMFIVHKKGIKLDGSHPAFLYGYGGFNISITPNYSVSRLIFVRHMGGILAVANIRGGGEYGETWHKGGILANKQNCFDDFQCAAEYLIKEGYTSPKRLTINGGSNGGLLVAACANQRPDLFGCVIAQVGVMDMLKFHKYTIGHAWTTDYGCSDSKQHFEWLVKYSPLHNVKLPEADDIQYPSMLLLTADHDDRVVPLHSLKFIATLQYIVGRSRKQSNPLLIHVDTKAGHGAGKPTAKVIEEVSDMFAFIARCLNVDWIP

COc1cc(C(=O)N2C[C@H](OC)C[C@H]2C(=O)N2CCC[C@H]2C#N)cc(OC)c1OCc1ccccc1 [Example 1, (S)-1-((2S,4R)-1-(4-(benzyloxy)-3,5-dimethoxybenzoyl)-4-methoxypyrrolidine-2-carbonyl)pyrrolidine-2-carbonitrile]
% T (percentage of transport) [1]: 4.3%

COc1cc(C(=O)N2CC(F)(F)C[C@H]2C(=O)N2CCC[C@H]2C#N)cc(OC)c1OCc1ccccc1 [Example 4, (S)-1-((2S)-1-(4-(benzyloxy)-3,5-dimethoxybenzoyl)-4,4-difluoropyrrolidine-2-carbonyl)pyrrolidine-2-carbonitrile]
Reversal of MK-801-induced memory impairment in the passive avoidance test [2]: able to reverse MK-801-induced memory Impairment

COc1cc(C(=O)N2CC(F)(F)C[C@H]2C(=O)N2CCC[C@H]2C#N)cc(OCc2ccccc2)c1OCc1ccccc1 [Example 13, (S)-1-((2S)-1-(3,4-dibenzyloxy-5-methoxybenzoyl)-4,4-difluoropyrrolidine-2-carbonyl)pyrrolidine-2-carbonitrile]
IC50 [3]: 336 nM
